How the values were obtained:
Assay in all cases: whole-cell patch clamp, mechanically activated current block
Format in all cases: cell-based
[1] = molecular target: T1, mPiezo2 (Mus musculus, UniProt Q8CD54, E2416K); settings: -80 mV; extracellular RR; pH 7.3; room temperature
T1 construct: gene Piezo2; full length, pCMV-Sport6 vector (printed for the E2416K mutant), transfected HEK293T

[2] = molecular target: T2, mPiezo1 (Mus musculus, UniProt E2JF22, E2133D); settings: -80 mV; extracellular RR; pH 7.3; room temperature
T2 construct: gene Piezo1; full length, 2547 residues, IRES-EGFP pcDNA3.1(-) vector, transfected HEK293T
T2 sequence (E2JF22 whole entry E2133D): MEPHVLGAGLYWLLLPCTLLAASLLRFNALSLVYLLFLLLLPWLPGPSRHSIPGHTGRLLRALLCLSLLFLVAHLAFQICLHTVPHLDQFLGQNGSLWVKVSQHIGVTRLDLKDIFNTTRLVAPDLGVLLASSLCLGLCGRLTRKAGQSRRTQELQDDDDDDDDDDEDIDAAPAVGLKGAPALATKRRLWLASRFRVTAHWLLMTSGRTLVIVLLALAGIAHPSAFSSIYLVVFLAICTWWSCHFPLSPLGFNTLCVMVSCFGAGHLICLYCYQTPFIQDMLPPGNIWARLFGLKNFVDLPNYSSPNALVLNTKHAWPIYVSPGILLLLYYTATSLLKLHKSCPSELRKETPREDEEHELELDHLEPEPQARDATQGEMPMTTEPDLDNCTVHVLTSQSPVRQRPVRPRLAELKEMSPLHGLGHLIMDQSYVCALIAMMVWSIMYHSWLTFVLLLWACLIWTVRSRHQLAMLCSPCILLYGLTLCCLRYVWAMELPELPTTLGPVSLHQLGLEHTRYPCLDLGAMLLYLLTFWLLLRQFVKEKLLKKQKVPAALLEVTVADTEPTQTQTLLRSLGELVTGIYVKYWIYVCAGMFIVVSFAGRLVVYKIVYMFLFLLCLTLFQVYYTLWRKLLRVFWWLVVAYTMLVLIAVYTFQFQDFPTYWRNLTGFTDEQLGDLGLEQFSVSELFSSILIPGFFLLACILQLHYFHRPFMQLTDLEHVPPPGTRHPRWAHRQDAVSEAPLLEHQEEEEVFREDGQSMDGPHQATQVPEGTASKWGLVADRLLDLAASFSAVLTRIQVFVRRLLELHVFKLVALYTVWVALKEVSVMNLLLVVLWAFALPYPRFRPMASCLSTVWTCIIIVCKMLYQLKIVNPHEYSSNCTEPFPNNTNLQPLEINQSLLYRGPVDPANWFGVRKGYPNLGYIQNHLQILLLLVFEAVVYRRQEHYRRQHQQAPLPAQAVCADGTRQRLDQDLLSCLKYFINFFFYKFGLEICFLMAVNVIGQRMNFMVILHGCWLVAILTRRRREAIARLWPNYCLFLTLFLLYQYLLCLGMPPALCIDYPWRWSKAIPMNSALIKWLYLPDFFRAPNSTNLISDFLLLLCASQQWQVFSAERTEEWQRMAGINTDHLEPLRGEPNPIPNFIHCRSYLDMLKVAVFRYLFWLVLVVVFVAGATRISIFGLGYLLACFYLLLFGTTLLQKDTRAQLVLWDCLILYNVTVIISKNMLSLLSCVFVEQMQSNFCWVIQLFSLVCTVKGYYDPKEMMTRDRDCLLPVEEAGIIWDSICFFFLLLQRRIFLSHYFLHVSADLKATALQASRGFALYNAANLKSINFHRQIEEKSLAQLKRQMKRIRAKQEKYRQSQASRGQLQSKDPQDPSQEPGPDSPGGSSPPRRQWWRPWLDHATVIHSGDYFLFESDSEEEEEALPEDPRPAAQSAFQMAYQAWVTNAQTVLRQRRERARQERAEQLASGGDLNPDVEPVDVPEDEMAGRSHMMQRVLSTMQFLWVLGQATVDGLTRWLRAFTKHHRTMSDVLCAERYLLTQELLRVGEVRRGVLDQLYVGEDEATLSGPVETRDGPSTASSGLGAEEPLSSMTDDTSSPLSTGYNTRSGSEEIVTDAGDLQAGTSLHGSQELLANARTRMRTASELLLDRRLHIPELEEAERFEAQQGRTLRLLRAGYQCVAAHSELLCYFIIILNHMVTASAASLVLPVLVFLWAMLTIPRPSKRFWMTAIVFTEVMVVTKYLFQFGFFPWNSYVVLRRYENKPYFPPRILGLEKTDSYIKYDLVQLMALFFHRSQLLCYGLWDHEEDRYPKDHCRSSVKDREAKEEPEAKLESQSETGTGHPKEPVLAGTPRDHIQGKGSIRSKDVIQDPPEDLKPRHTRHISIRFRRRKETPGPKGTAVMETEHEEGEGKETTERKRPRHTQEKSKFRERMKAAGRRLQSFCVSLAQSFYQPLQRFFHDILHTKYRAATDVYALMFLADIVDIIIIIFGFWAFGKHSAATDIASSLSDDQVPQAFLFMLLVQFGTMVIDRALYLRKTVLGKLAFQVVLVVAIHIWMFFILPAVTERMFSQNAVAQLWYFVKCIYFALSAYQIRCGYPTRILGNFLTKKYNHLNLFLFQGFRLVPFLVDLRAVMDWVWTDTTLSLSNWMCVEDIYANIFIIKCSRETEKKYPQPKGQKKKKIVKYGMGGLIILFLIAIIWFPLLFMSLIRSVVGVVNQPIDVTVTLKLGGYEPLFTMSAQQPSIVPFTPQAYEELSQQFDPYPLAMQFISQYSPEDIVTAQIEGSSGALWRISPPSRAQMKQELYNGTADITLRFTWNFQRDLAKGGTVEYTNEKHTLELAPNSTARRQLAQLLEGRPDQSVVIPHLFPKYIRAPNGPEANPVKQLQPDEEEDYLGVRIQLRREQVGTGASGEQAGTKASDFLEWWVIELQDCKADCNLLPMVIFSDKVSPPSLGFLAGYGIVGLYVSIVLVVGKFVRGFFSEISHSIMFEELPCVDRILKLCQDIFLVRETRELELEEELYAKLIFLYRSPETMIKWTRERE

[3] = molecular target: T3, mPiezo1 (Mus musculus, UniProt E2JF22, E2133Q); settings: -80 mV; extracellular RR; pH 7.3; room temperature
T3 construct: gene Piezo1; full length, 2547 residues, IRES-EGFP pcDNA3.1(-) vector, transfected HEK293T
T3 sequence (E2JF22 whole entry E2133Q): as the sequence (E2JF22 whole entry E2133D) above, with D2133Q counted along it

[4] = molecular target: T4, mPiezo1 (Mus musculus, UniProt E2JF22, E2133K); settings: -80 mV; extracellular RR; pH 7.3; room temperature
T4 construct: gene Piezo1; full length, 2547 residues, IRES-EGFP pcDNA3.1(-) vector, transfected HEK293T
T4 sequence (E2JF22 whole entry E2133K): as the sequence (E2JF22 whole entry E2133D) above, with D2133K counted along it

[5] = molecular target: T5, mPiezo1 (Mus musculus, UniProt E2JF22); settings: -80 mV; extracellular RR; pH 7.3; room temperature; voltage-dependent pore block
T5 construct: gene Piezo1; full length, 2547 residues, IRES-EGFP pcDNA3.1(-) vector, transfected HEK293T
T5 sequence (E2JF22 whole entry): as the sequence (E2JF22 whole entry E2133D) above, with D2133E counted along it

[6] = molecular target: T6, mPiezo2 (Mus musculus, UniProt Q8CD54); settings: -80 mV; extracellular RR; pH 7.3; room temperature
T6 construct: gene Piezo2; full length, pCMV-Sport6 vector (printed for the E2416K mutant), transfected HEK293T

N.N.N.N.N.N.N.N.N.N.N.N.N.N.[Cl-].[Cl-].[Cl-].[Cl-].[Cl-].[Cl-].[O-2].[O-2].[Ru+3].[Ru+3].[Ru+4] [ruthenium red]
% block at 30 μM [1]: 49.6±4.6%
IC50 [2]: 1.26 ± 0.28 µM
IC50 [3]: 5.62 ± 1.27 µM
% block at 30 μM [4]: 8.1±7.1%
IC50 [5]: 4.71 ± 0.83 µM
% block at 30 μM [6]: 70.8±1.4%

Source: PMC4445471, “Piezo1 ion channel pore properties are dictated by C-terminal region” (Nature Communications, 2015)
